Measurements as given in patent US10272110B2, “Methods for promoting HSC engraftment” (CHILDREN'S MEDICAL CENTER CORPORATION, priority 2006, dated 2019).
Entries after “also recorded” stand apart in the source; their conditions may differ. Values belong to the molecule of their own block, whether it stands above or below them.

Tests used:
[1] = tested on: ES cell-derived embryoid bodies; test: Hematopoietic colonies from ES cell-derived embryoid bodies treated with DEAB or RA; format: cell-based, mouse; settings: added to EBs between days two to three
Excerpt: DEAB and RA also affected the formation of mouse hematopoietic progenitors arising from ES cell-derived embryoid bodies (EBs). […] See also Davidson et al., 425 Nature 300-06 (2003); Davidson & Zon, 292(2) Devel. Biol. 506-18 (2006).

embryonic hematopoiesis = test: RA / DEAB treatment of wild-type and kgg zebrafish embryos; format: in vivo
mouse ES cells = test: ES cell hematopoietic differentiation assays (M3434 methylcellulose and OP9 colony assays); format: cell-based; settings: indomethacin 20 μM (OP9) and 100 μM (GM)
Method: ES cell hematopoietic differentiation assays were performed as previously described. […] M3434 methylcellulose colony forming and OP9 colony assays were conducted on day 6 and analyzed at […], respectively. Colony type was identified by morphological analysis; duplicate chemical exposures were averaged to determine the reported colony number (n=3 replicates minimum).

PGE2 formation = test: HPLC-tandem mass spectrometry of PGE2 in zebrafish embryos; format: in vivo; settings: 36 hpf embryos, n=3; untreated 18+/−6
Method: PGE2 and the stable PGI2 metabolite, 6-keto-PGF1α, were measured using HPLC-tandem mass spectrometry. Ethylacetate extracts from homogenized embryos were spiked with the corresponding stable isotope labeled internal standards (d4-PGE2 and d4-6-keto PGF1α) and allowed to react with methoxylamine. The following mass transitions were monitored: m/z 384→272 (PGE), m/z 398→368 (6-keto PGF1α and TxB2).

runx1, cmyb expression = test: qPCR of HSC gene expression in treated zebrafish embryos; format: in vivo
[2] = tested on: CFU-S from murine bone marrow cells; test: Murine colony-forming units-spleen (CFU-S); format: in vivo, mouse
Method: Two independent BM samples were treated (n=5/treatment×2 replicates) for each variable. Recipient mice were lethally irradiated with a split dose of 10 Gy. 6×10^4 unfractionated dmPGE2 or control-treated BM cells were injected retro-orbitally into irradiated recipient mice. Spleens were dissected on day eight or twelve, weighed and fixed with Bouin's solution; hematopoietic colonies per spleen were counted. 1×10^5 cells/recipient were transplanted after treatment with the cox inhibitors. FACS sorted ckit^+sca1^+lineage^− BM cells were treated as above and transplanted at a dose of either 100 cells/recipient or 300 cells/recipient.

wnt activity [3] = test: wnt reporter TOP:dGFP zebrafish embryos; format: in vivo; settings: vs control
Excerpt: Clinical experience in patients with APC mutations has shown that inhibition of prostaglandin synthesis results in decreased wnt mediated polyp formation. […] These interactions were examined in vivo using a wnt reporter zebrafish transgenic line, TOP:dGFP. At fifty-percent epiboly, embryos were subjected either to nothing (control), indomethacin, or PGE2, and the amount of wnt signaling activated in the embryo assessed by GFP induction driven from the wnt binding site. Analysis of alterations in GFP expression in the head was analyzed by in situ hybridization. […] FIG. 12.

vasculature (flk1) = settings: zebrafish, in vivo, 10 μM
Method: (§1) Wild-type age-matched embryos were arrayed into 48-well plates (˜5 embryos/well) of individual test compounds and exposed from 3-somites until 36 hpf. Three compound libraries were utilized: NINDS Custom Collection (1040), SpecPlus Collection (960) and BIOMOL ICCB Known Bioactives (480). […] In situ hybridization for runx1 and cmyb was performed to assess HSCs. Compounds were retested at 10 μM, 20 μM, and 50 μM. Stem cell specificity was assessed using flk1 at 36 hpf. PGE2, PGI2, dmPGE2 and all cox inhibitors (Sigma) were used at 10 μM to 20 μM.

wnt activity [4] = test: wnt activity in kidney marrow of irradiated Top:dGFP adults; format: in vivo, zebrafish; settings: day three post irradiation
Method: (§2) To determine if prostaglandin pathway manipulation can alter wnt activity in the kidney marrow repopulation in the adult, the effects of dmPGE2 and indomethacan was examined further in Top:dGFP lines. […] FIG. 14. To discern whether modulation of prostaglandin signaling can modify the wnt mediated effects on kidney marrow recovery following irradiation, wnt genes were activated by heat shock at 38° C. at two days post irradiation and then. exposure to prostaglandin pathway drugs at one day post heat shock. The hs:wnt8-GFP fish were exposed to indomethacin, while the dkk1, axin, and dnTCF transgenic fish were exposed to dmPGE2. Whole kidney marrow was analyzed by FACS on day ten post-irradiation.

runx1/cmyb+ AGM HSCs [5] = test: Heat shock wnt-pathway transgenic embryos treated with PG drugs: AGM HSC formation; format: in vivo, zebrafish; settings: hs:wnt8 embryos heat shocked at five somites
Method: More specifically, Wnt signaling through its main transcriptional mediator β-catenin plays an important role in controlling tissue patterning, cell fate decisions, and proliferation in many embryonic contexts, including the development and differentiation of organs. […] Whether wnt signaling has a role during HSC formation in zebrafish was determined using heat shock inducible activators and repressors of the wnt pathway. Briefly, wnt-inducible embryos were harvested and heat shocked for twenty minutes at 38° C. Genotypes were sorted by GFP expression, and the AGM HSCs analyzed by runx1/cmyb expression in situ. […] This is the first evidence in any organism that wnt signaling is required for AGM HSC formation.
Additionally, indomethacin and dmPGE2 was used to investigate the interaction of the wnt and prostaglandin pathways during HSC development and in marrow recovery following injury. FIG. 13 reflects the potential points of interaction of the PG and wnt pathways. […] Furthermore, dmPGE2 can rescue the inhibitory effects of dkk activation on AGM HSC formation at 36 hpf, as shown by in situ hybridization for runx1/cmyb.

runx1/cmyb+ AGM HSCs [6] = settings: for effect on AGM HSCs in zebrafish embryos (in words): exposure from three somites to 36 hpf, runx1/cmyb staining
Method: A chemical genetic screen was conducted to identify novel pathways that modulate definitive HSC formation during zebrafish embryogenesis. FIG. 1. Genes such as runx1 and cmyb, required for HSC development during mammalian hematopoiesis, are expressed in the ventral wall of the dorsal aorta in a region analogous to the mammalian AGM at thirty-six hours post-fertilization (hpf). […] Wild-type embryos were incubated with individual compounds from the three-somite stage until thirty-six hpf. Probes for runx1 and cmyb were combined and utilized to detect HSCs by in situ hybridization.
as §1, with “hpf.” for “hpf. Three compound libraries were utilized: NINDS Custom Collection (1040), SpecPlus Collection (960) and BIOMOL ICCB Known Bioactives (480).”
Qualitative scoring (# embryos with altered HSCs/# scored) of runx1/cmyb was conducted using the following criteria: Normal/unchanged=continuous line of runx1/cmyb+ endothelial cells and occasional hematopoietic clusters. Decreased/absent=reduction in runx1/cmyb+ cells, including the presence of large gaps in the line of HSCs, isolated positive cells, or absence of expression. Increased/excess=enhancement in runx1/cmyb^+ cells, including many HSC clusters, a thickened line of HSCs, or ectopic expression.

cmyb/lmo2+ HSCs = test: Confocal quantification of HSCs in cmyb:GFP x lmo2:dsRed bigenic embryos; format: in vivo, zebrafish; settings: 36 hpf live embryos
Method: A long-acting derivative, 16,16-dimethyl-PGE2 (dmPGE2, 10 μM) caused an increase in runx1/cmyb+ AGM HSCs in 78% of embryos examined (97/124). AGM HSCs were inhibited by indomethacin (10 μM) treatment in 90% of embryos analyzed (92/102). […] Transgenic cmyb:GFP zebrafish with green fluorescent HSCs and myeloid progenitor cells were crossed to lmo2:dsRed fish that have red fluorescent endothelial cells and HSCs to visualize the effects of chemical exposure in vivo. […] FIG. 3.
Live 36 hpf treated bigenic zebrafish embryos were embedded in 1% low-melting point agarose containing 0.4 mg/ml Tricaine-S for confocal imaging. cmyb-GFP transgenic reporter lines were created from a BAC containing the cmyb promoter genomic sequence (Galloway, Zhu, Lin, Zon, unpublished); lmo2:DsRed fish were created as described^27. For HSC quantification, cmyb/lmo2+ positive cells were counted in projections of z-stack images (n=10/treatment).

[7] = tested on: kidney marrow precursor cell population; test: Kidney marrow recovery after irradiation in heat shock wnt transgenic adults treated with PG drugs; format: in vivo, zebrafish; settings: hs:wnt8-GFP adults, day ten post-irradiation
Method: An irradiation recovery assay was also employed to investigate the role of wnt signaling in hematopoietic homeostasis in zebrafish. Transgenic fish expressing wnt-related genes were sublethally irradiated and heat shock gene induction was initiated by overnight incubation at 38° C. on day two post-irradiation. Kidney marrow was harvested at various timepoints post-irradiation as outlined previously for the prostaglandin experiments. FIG. 11. […] Inhibition of wnt signaling, by heat shock dkk or dnTCF, drastically alters the kinetics of marrow recovery and can result in the complete failure of marrow regeneration and lethality.
as §2

wnt activity [8] = test: wnt activity in the AGM of TOP:gal mice; settings: mouse, in vivo

Structure (SMILES): CCN(CC)c1ccc(C=O)cc1 [DEAB]
increase in 'primitive' erythroid colonies (CFU-Ep) [1]: five-eight fold
erythroid cells in wild-type embryos (embryonic hematopoiesis): induced an expansion of erythroid cells
expression of hoxa9a in kgg embryos (embryonic hematopoiesis): failed to rescue
hematopoiesis in kgg mutants (embryonic hematopoiesis): restored hematopoiesis

embryos with slightly altered intersomitic vessels (vasculature (flk1)): 30%
embryos with slightly altered intersomitic vessels (# altered/# examined) (vasculature (flk1)): 15/49
Structure (SMILES): COc1ccc2c(c1)c(CC(=O)O)c(C)n2C(=O)c1ccc(Cl)cc1 [Indomethacin]
colony growth (mouse ES cells): inhibited colony growth
PGE2 formation after treatment (PGE2 formation): < 2 pg/50 embryos
cmyb expression by qPCR (in words) (runx1, cmyb expression; 10 μM): significant alterations
runx1 expression by qPCR, reduction (runx1, cmyb expression; indomethacin 10 μM): 50%
number of CFU-S12, decrease ([2]; WBM ex vivo 1 μM/10^6 cells, 1×10^5 cells transplanted): 70%
CFU-S12 Colony Number ([2]; Whole Marrow, 100000 cells transplanted, 1 μM/10^6 cells ex vivo, EtOH 8.8 (2.1)): 2.5 (1.4)
wnt activity (GFP expression) in TOP:dGFP embryos (wnt activity [3]; listed as indo): virtual absence of wnt activity
wnt activity (GFP expression) in TOP:dGFP embryos (wnt activity [3]; listed as indomethacin): severely reduced GFP expression
wnt activity (GFP) in kidney marrow of Top:dGFP adults (wnt activity [4]): inhibited GFP expression
effect on wnt8-mediated enhancement of runx1/cmyb expression / HSC induction (runx1/cmyb+ AGM HSCs [5]; listed as indo): reversed
effect on wnt8-mediated enhancement of runx1/cmyb expression / HSC induction (runx1/cmyb+ AGM HSCs [5]; listed as indomethacin): can be blocked
embryos with AGM HSCs inhibited (runx1/cmyb+ AGM HSCs [6]; 10 μM): 90%
decreased runx1/cmyb+ HSCs (# embryos altered/# scored) (runx1/cmyb+ AGM HSCs [6]; 10 μM, 36 hpf): 92/102
effect on AGM HSCs in zebrafish embryos (in words) (runx1/cmyb+ AGM HSCs [6]): reduced stem cells in the aorta
HSC numbers along the floor of the aorta by confocal microscopy (in words) (cmyb/lmo2+ HSCs): significantly decreased numbers of HSCs
effect on wnt-mediated enhancement of the kidney marrow precursor cell population ([7]; listed as Indo): blocked
effect on wnt-mediated enhancement of the kidney marrow precursor cell population ([7]; listed as indomethacin): severely diminish

Structure (SMILES): CCCCC[C@H](O)/C=C/[C@H]1[C@H](O)CC(=O)[C@@H]1C/C=C\CCCC(=O)O [PGE2, prostaglandin E2]
wnt activity in the AGM of TOP:gal mice (wnt activity [8]): induced wnt activity
wnt activity (GFP expression) in TOP:dGFP embryos (wnt activity [3]): markedly enhanced wnt activity
increased runx1/cmyb expression (# embryos altered/# scored) (runx1/cmyb+ AGM HSCs [6]; 20 μM, 36 hpf): 25/49
effect on AGM HSCs in zebrafish embryos (in words) (runx1/cmyb+ AGM HSCs [6]): stronger expression of runx1/cmyb than PGI2; also recorded: increase moderately
